What all share (assay type): biochemical
For one assay, the target named is PLK3 (Homo sapiens, UniProt Q9H4B4). The assay is described as follows: PLK TR-FRET peptide assay, PLK3. For orientation: TR-FRET usually uses a lanthanide donor and a delayed reading to cut background.
The target of the next assay is PLK2 (Homo sapiens, UniProt Q9NYY3). The assay is described as follows: PLK TR-FRET peptide assay, PLK2. Conditions: for IC50: PLK TR-FRET peptide assay, read-out: Plk2 IC50; for relative PLK2 activity of the enantiomers: compared with the opposite enantiomer.
Sequence of PLK2 (Q9NYY3 whole entry): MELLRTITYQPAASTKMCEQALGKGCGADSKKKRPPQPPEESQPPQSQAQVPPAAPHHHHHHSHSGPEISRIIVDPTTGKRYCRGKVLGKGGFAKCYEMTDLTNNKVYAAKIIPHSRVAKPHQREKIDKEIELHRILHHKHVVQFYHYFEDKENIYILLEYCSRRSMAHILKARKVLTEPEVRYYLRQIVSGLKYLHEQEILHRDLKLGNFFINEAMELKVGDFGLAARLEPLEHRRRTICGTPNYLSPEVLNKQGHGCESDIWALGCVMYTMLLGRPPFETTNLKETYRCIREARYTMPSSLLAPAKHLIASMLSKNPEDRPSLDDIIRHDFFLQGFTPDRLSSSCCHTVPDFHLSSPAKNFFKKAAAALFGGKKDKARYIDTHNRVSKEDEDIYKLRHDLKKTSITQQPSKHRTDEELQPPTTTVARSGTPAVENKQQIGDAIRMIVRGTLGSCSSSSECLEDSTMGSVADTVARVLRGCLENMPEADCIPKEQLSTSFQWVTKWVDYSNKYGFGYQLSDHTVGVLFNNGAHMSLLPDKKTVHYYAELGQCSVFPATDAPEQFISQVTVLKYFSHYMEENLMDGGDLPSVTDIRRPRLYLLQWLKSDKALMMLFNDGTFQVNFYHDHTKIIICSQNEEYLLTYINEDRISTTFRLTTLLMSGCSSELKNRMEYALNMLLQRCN
For a further assay, the target named is PLK1 (Homo sapiens, UniProt P53350). The assay is described as follows: PLK TR-FRET peptide assay, PLK1.
Sequence of PLK1 (P53350 whole entry): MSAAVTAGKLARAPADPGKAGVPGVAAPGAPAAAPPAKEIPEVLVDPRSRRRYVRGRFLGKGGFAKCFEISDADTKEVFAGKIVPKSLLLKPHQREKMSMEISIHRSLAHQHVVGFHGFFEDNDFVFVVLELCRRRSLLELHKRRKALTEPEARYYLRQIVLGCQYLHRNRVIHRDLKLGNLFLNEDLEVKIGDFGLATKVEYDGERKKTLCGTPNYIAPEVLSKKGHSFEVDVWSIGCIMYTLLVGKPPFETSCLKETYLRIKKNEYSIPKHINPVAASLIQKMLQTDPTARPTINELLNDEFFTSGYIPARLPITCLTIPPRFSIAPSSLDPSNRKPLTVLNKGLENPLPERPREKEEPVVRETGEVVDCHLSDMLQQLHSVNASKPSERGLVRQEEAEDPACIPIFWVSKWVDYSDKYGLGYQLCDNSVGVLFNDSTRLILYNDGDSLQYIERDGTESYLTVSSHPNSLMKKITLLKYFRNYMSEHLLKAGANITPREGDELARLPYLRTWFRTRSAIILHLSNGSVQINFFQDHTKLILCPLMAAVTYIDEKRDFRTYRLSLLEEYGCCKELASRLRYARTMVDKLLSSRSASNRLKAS
The mark [1] stands for this setting: GST-PLK3, 15 min reaction, read-out: Plk3 IC50.

Experimental findings from patent US8541418B2, “Inhibitors of polo-like kinase” (Elan Pharmaceutical, Inc., priority 2009, dated 2013) are described below.

Where two headings read alike, the source gives them in different places. Where only a bound is given, the exact number is not on record here.

Sequence of PLK3 (Q9H4B4 whole entry): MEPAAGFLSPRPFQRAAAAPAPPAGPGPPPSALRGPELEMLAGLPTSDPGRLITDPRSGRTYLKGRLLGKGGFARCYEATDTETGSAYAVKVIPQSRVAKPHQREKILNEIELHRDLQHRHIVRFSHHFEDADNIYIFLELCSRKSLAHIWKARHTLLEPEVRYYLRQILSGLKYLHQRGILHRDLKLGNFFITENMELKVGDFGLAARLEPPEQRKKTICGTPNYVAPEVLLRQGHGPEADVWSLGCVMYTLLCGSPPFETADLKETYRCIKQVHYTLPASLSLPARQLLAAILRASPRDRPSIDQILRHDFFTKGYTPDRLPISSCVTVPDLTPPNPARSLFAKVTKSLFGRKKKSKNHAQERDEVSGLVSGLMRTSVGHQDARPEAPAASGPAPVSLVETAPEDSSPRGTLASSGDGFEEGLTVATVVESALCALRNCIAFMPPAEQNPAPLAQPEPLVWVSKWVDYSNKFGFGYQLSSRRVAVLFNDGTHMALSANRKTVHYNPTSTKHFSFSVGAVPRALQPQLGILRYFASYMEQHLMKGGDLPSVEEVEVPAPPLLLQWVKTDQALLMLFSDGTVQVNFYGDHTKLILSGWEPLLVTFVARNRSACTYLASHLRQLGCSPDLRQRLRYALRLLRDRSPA

Take `CC[C@@H]1C(=O)N(C)c2cnc(-c3ccncc3NC(C)=O)nc2N1C1CCCC1` [Example 115, (R)—N-(4-(8-cyclopentyl-7-ethyl-5-methyl-6-oxo-5,6,7,8-tetrahydropteridin-2-yl)pyridin-3-yl)acetamide]: the IC50 (in general, the concentration that gives 50% inhibition) on PLK3 (setting [1]) was 10 to 50 µM; at PLK2 (GST-PLK2, 60 min reaction), under 1 µM; against PLK1 (GST-PLK1, 60 min reaction) it was 1 to 10 µM.
Take `CC[C@@H]1C(=O)N(C)c2cnc(-c3ccncc3NS(=O)(=O)c3ccccc3)nc2N1C1CCCC1` [Example 127, (R)—N-(4-(8-cyclopentyl-7-ethyl-5-methyl-6-oxo-5,6,7,8-tetrahydropteridin-2-yl)pyridin-3-yl)benzenesulfonamide]: the IC50 on PLK3 (setting [1]) is over 50 µM; at PLK2 (GST-PLK2, 60 min reaction), 10 to 50 µM; at PLK1 (GST-PLK1, 60 min reaction), 10 to 50 µM.
With `CC[C@]12CCCCN1c1nc(-n3ccnc3-c3cccc(F)c3)ncc1N(C)C2=O` [Example 265, (R)-6a-ethyl-2-(2-(3-fluorophenyl)-1H-imidazol-1-yl)-5-methyl-7,8,9,10-tetrahydro-5H-pyrido[2,1-h]pteridin-6(6aH)-one], the IC50 at PLK3 (setting [1]) was over 50 µM; at PLK2 (GST-PLK2, 60 min reaction), 10 to 50 µM; at PLK1 (GST-PLK1, 60 min reaction), over 50 µM.
As to `[2H]C([2H])([2H])N1C(=O)[C@H](C([2H])([2H])C([2H])([2H])[2H])N(C([2H])(C([2H])([2H])[2H])C([2H])([2H])[2H])c2nc(-n3ccnc3-c3cccc(F)c3)ncc21` [Example 201, (S)-7-perdeuteroethyl-2-(2-(3-fluorophenyl)-1H-imidazol-1-yl)-8-perdeuteroisopropyl-5-trideuteromethyl-7,8-dihydropteridin-6(5H)-one], the concentration for half-maximal inhibition (IC50) at PLK3 (setting [1]) was over 50 µM; at PLK2 (GST-PLK2, 60 min reaction) it was 1 to 10 µM; against PLK1 (GST-PLK1, 60 min reaction) it was 10 to 50 µM.
The matching figures for `[2H]C([2H])([2H])N1C(=O)[C@H](C([2H])([2H])C([2H])([2H])[2H])N(C([2H])(C([2H])([2H])[2H])C([2H])([2H])[2H])c2nc(-n3ccnc3-c3ccc(F)cc3)ncc21` [Example 199, (S)-7-perdeuteroethyl-2-(2-(4-fluorophenyl)-1H-imidazol-1-yl)-8-perdeuteroisopropyl-5-trideuteromethyl-7,8-dihydropteridin-6(5H)-one]: over 50 µM, 1 to 10 µM and 10 to 50 µM.
The like results for `CC[C@@]12CCCN1c1nc(-n3ccnc3-c3cccc(-c4cccnc4)c3)ncc1N(C)C2=O` [Example 272, (S)-6a-ethyl-5-methyl-2-(2-(3-(pyridin-3-yl)phenyl)-1H-imidazol-1-yl)-6a,7,8,9-tetrahydropyrrolo[2,1-h]pteridin-6(5H)-one] were, in that order, 10 to 50 µM, under 1 µM and 10 to 50 µM.
In the case of `CC[C@@H]1C(=O)N(C)c2cnc(-c3ccncc3CNC(C)=O)nc2N1C1CCCC1` [Example 122, (R)—N-((4-(8-cyclopentyl-7-ethyl-5-methyl-6-oxo-5,6,7,8-tetrahydropteridin-2-yl)pyridin-3-yl)methyl)acetamide], the half-maximal inhibitory concentration (IC50) on PLK3 (setting [1]) fell in the range of 10 to 50 µM; on PLK2 (GST-PLK2, 60 min reaction), 1 to 10 µM; against PLK1 (GST-PLK1, 60 min reaction) it was 10 to 50 µM.
For the compound `CC[C@@H]1C(=O)N(C)c2cnc(-n3ccnc3-c3ccc(F)c(F)c3)nc2N1C1CCC1` [Example 48, (R)-8-cyclobutyl-2-(2-(3,4-difluorophenyl)-1H-imidazol-1-yl)-7-ethyl-5-methyl-7,8-dihydropteridin-6(5H)-one], the IC50 at PLK3 (setting [1]) is 10 to 50 µM; at PLK2 (GST-PLK2, 60 min reaction), under 1 µM; on PLK1 (GST-PLK1, 60 min reaction), 1 to 10 µM.
As for `CN1C(=O)[C@@H](CC(F)(F)F)N(CCC(F)(F)F)c2nc(-n3ccnc3)ncc21` [Example 301, (R)-2-(1H-imidazol-1-yl)-5-methyl-7-(2,2,2-trifluoroethyl)-8-(3,3,3-trifluoropropyl)-7,8-dihydropteridin-6(5H)-one], the half-inhibitory concentration (IC50) at PLK3 (setting [1]) was 10 to 50 µM; at PLK2 (GST-PLK2, 60 min reaction), under 1 µM; at PLK1 (GST-PLK1, 60 min reaction), 10 to 50 µM. Besides, the “relative PLK2 activity of the enantiomers” value at PLK2 was “more active compound”.
Regarding `CC[C@@H]1C(=O)N(C)c2cnc(N3CCNC(=O)C3)nc2N1C1CCCC1` [Example 214, (R)-8-cyclopentyl-7-ethyl-5-methyl-2-(3-oxopiperazin-1-yl)-7,8-dihydropteridin-6(5H)-one], the concentration for half-maximal inhibition (IC50) on PLK3 (setting [1]) was over 50 µM; on PLK2 (GST-PLK2, 60 min reaction), 10 to 50 µM; against PLK1 (GST-PLK1, 60 min reaction), 1 to 10 µM.
Take `CCC12CCCCCN1c1nc(-n3ncnc3-c3ccccc3)ncc1N(C)C2=O` (racemic) [Example 216, (+/−) 6a-ethyl-5-methyl-2-(5-phenyl-1H-1,2,4-triazol-1-yl)-6a,7,8,9,10,11-hexahydroazepino[2,1-h]pteridin-6(5H)-one]: the IC50 on PLK3 (setting [1]) is 10 to 50 µM; at PLK2 (GST-PLK2, 60 min reaction) it was 1 to 10 µM; on PLK1 (GST-PLK1, 60 min reaction), 1 to 10 µM.
For `CC[C@@H]1C(=O)N(C)c2cnc(-n3cnc(C(=O)N(C)C)c3)nc2N1C1CCCC1` [Example 384, (R)-1-(8-cyclopentyl-7-ethyl-5-methyl-6-oxo-5,6,7,8-tetrahydropteridin-2-yl)-N,N-dimethyl-1H-imidazole-4-carboxamide], the concentration for half-maximal inhibition (IC50) at PLK3 (GST-PLK3, read-out: Plk3 IC50) is 10 to 50 µM; on PLK2 (GST-PLK2) it was 1 to 10 µM; on PLK1 (GST-PLK1), 1 to 10 µM.
`CC[C@@H]1C(=O)N(C)c2cnc(-c3cn[nH]c3-c3nccs3)nc2N1c1ccc(Cl)cc1` [Example 382, (R)-8-(4-chlorophenyl)-7-ethyl-5-methyl-2-(5-(thiazol-2-yl)-1H-pyrazol-4-yl)-7,8-dihydropteridin-6(5H)-one]: the concentration for half-maximal inhibition (IC50) on PLK3 (GST-PLK3, read-out: Plk3 IC50) was under 1 µM; on PLK2 (GST-PLK2) it was under 1 µM; against PLK1 (GST-PLK1) it was under 1 µM. On PLK2, the “relative PLK2 activity of the enantiomers” value is reported as “more active compound”.
In the case of `CCC1C(=O)N(C)c2cnc(-c3cnsc3-c3ccc(F)cc3)nc2N1c1cccc(C#N)c1` (racemic) [Example 401, 3-(7-ethyl-2-(5-(4-fluorophenyl)isothiazol-4-yl)-5-methyl-6-oxo-6,7-dihydropteridin-8(5H)-yl)benzonitrile], the IC50 at PLK3 (GST-PLK3, read-out: Plk3 IC50) was 1 to 10 µM; at PLK2 (GST-PLK2) it was under 1 µM; at PLK1 (GST-PLK1) it was 1 to 10 µM.
On to `CCC12CCCCN1c1nc(-n3ccnc3-c3cc(F)cc(F)c3)ncc1N(C)C2=O` (racemic) [Example 243, (+/−) 2-(2-(3,5-difluorophenyl)-1H-imidazol-1-yl)-6a-ethyl-5-methyl-7,8,9,10-tetrahydro-5H-pyrido[2,1-h]pteridin-6(6aH)-one], for which the IC50 at PLK3 (setting [1]) was over 50 µM; at PLK2 (GST-PLK2, 60 min reaction), under 1 µM; at PLK1 (GST-PLK1, 60 min reaction), 10 to 50 µM.
The matching figures for `CC[C@@H]1C(=O)N(C)c2cnc(-n3ccnc3N3CCCC3=O)nc2N1C1CCCC1` [Example 82, (R)-8-cyclopentyl-7-ethyl-5-methyl-2-(2-(2-oxopyrrolidin-1-yl)-1H-imidazol-1-yl)-7,8-dihydropteridin-6(5H)-one]: 10 to 50 µM, 1 to 10 µM and 1 to 10 µM.
For `CC[C@@H]1C(=O)N(C)c2cnc(-n3ccnc3-c3ccc(C#N)cc3)nc2N1C(C)C` [Example 227, (R)-4-(1-(7-ethyl-8-isopropyl-5-methyl-6-oxo-5,6,7,8-tetrahydropteridin-2-yl)-1H-imidazol-2-yl)benzonitrile], the IC50 on PLK3 (setting [1]) was 10 to 50 µM; on PLK2 (GST-PLK2, 60 min reaction), under 1 µM; against PLK1 (GST-PLK1, 60 min reaction), 10 to 50 µM.
With `CCC12CCCCN1c1nc(-n3ccnc3-c3cc(F)c(F)c(F)c3)ncc1N(C)C2=O` (racemic) [Example 256, (+/−) 6a-ethyl-5-methyl-2-(2-(3,4,5-trifluorophenyl)-1H-imidazol-1-yl)-7,8,9,10-tetrahydro-5H-pyrido[2,1-h]pteridin-6(6aH)-one], the concentration for half-maximal inhibition (IC50) on PLK3 (setting [1]) was over 50 µM; on PLK2 (GST-PLK2, 60 min reaction), under 1 µM; on PLK1 (GST-PLK1, 60 min reaction), over 50 µM.
Take `CC[C@@]12CCCN1c1nc(-n3ccnc3-c3cnc4ccccc4c3)ncc1N(C)C2=O` [Example 241, (S)-6a-ethyl-5-methyl-2-(2-(quinolin-3-yl)-1H-imidazol-1-yl)-6a,7,8,9-tetrahydropyrrolo[2,1-h]pteridin-6(5H)-one]: the IC50 at PLK3 (setting [1]) was over 50 µM; at PLK2 (GST-PLK2, 60 min reaction), under 1 µM; on PLK1 (GST-PLK1, 60 min reaction), 10 to 50 µM.
`CC[C@@H]1C(=O)N(C)c2cnc(-c3cnoc3-c3ccc(F)cc3)nc2N1C(C)C` [Example 173, (R)-7-ethyl-2-(5-(4-fluorophenyl)isoxazol-4-yl)-8-isopropyl-5-methyl-7,8-dihydropteridin-6(5H)-one]: the IC50 on PLK3 (setting [1]) was 10 to 50 µM; on PLK2 (GST-PLK2, 60 min reaction), under 1 µM; on PLK1 (GST-PLK1, 60 min reaction), 1 to 10 µM.
The matching figures for `CC[C@H]1C(=O)N(C)c2cnc(-n3ccnc3-c3ccc(F)cc3)nc2N1c1cccc(C#N)c1` [Example 359, (S)-3-(7-ethyl-2-(2-(4-fluorophenyl)-1H-imidazol-1-yl)-5-methyl-6-oxo-6,7-dihydropteridin-8(5H)-yl)benzonitrile]: 10 to 50 µM, 1 to 10 µM and over 50 µM.
The matching figures for `CC[C@@H]1C(=O)N(C)c2cnc(-n3ccnc3-c3nccc4ccccc34)nc2N1C(C)C` [Example 196, (R)-7-ethyl-8-isopropyl-2-(2-(isoquinolin-1-yl)-1H-imidazol-1-yl)-5-methyl-7,8-dihydropteridin-6(5H)-one]: over 50 µM, 1 to 10 µM and 10 to 50 µM.
The matching figures for `CC[C@@H]1C(=O)N(C)c2cnc(-n3ccnc3-c3nccs3)nc2N1C1CCC1` [Example 156, (R)-8-cyclobutyl-7-ethyl-5-methyl-2-(2-(thiazol-2-yl)-1H-imidazol-1-yl)-7,8-dihydropteridin-6(5H)-one]: 1 to 10 µM, under 1 µM and 1 to 10 µM.
Take `CCC12CCCCN1c1nc(-n3ccnc3-c3ccc(F)c(F)c3)ncc1N(C)C2=O` (racemic) [Example 240, (+/−) 2-(2-(3,4-difluorophenyl)-1H-imidazol-1-yl)-6a-ethyl-5-methyl-7,8,9,10-tetrahydro-5H-pyrido[2,1-h]pteridin-6(6aH)-one]: the concentration for half-maximal inhibition (IC50) on PLK3 (setting [1]) is 10 to 50 µM; at PLK2 (GST-PLK2, 60 min reaction), under 1 µM; on PLK1 (GST-PLK1, 60 min reaction), 1 to 10 µM.
